In US20090130118A1, “SCUTELLARIA BARBATA EXTRACT AND COMBINATIONS FOR THE TREATMENT OF CANCER” (BIONOVO, INC., priority 2007, published 2009):

Columns and labels:
[1] = test system: subcutaneous cancer xenografts; assay: Mouse xenograft model, oral administration; type: in vivo; settings: BZL101 0.5 ml oral gavage every third day; cyclophosphamide 25 mg/Kg/day in drinking water; FIG. 6
Protocol: As in Example 1, above, 10^5 cells were administered to each animal subcutaneously on Day 0. The animals were divided into four groups. The control group received only normal drinking water. The cyclophosphamide only group received 25 mg/Kg/day of cyclophosphamide in their drinking water.

GnHR receptor = molecular target: T1, GnHR receptor (Homo sapiens, UniProt P30968); settings: in vivo studies; cited from earlier work
T1 sequence (P30968 1-328): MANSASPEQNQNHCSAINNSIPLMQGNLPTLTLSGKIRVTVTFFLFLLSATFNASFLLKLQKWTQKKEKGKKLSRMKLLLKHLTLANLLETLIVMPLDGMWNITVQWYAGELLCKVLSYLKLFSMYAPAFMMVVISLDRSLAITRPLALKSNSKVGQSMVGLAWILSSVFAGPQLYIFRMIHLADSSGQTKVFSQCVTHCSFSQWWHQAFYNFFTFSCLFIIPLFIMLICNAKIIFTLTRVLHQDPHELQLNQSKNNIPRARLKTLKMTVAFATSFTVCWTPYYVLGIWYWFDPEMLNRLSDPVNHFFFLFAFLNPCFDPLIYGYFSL

human tumor xenographs = settings: doses from 0.75 mg/kg/day to 1.5 mg/kg/day; cited from earlier work
aromatase = molecular target: T2, aromatase (Homo sapiens, UniProt P11511); settings: in vivo studies; cited from earlier work
T2 sequence (P11511 1-503): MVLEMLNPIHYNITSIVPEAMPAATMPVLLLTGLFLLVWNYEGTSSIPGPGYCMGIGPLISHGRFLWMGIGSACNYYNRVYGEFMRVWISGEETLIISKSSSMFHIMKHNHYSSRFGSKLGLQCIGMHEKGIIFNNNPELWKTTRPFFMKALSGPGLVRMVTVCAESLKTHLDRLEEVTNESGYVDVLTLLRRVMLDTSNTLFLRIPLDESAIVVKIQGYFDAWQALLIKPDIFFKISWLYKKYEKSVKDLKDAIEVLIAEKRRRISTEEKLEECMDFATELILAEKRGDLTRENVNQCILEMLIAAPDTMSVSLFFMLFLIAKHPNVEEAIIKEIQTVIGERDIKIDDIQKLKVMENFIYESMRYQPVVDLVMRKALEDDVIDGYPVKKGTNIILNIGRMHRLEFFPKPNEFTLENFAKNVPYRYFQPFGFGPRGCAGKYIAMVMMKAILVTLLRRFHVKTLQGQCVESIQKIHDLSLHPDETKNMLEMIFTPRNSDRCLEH

estrogen receptors = settings: compared with estrodiol; cited from earlier work
estrogen receptor = molecular target: T3, estrogen receptor (Homo sapiens, UniProt P03372); settings: cited from earlier work
T3 sequence (P03372 1-595): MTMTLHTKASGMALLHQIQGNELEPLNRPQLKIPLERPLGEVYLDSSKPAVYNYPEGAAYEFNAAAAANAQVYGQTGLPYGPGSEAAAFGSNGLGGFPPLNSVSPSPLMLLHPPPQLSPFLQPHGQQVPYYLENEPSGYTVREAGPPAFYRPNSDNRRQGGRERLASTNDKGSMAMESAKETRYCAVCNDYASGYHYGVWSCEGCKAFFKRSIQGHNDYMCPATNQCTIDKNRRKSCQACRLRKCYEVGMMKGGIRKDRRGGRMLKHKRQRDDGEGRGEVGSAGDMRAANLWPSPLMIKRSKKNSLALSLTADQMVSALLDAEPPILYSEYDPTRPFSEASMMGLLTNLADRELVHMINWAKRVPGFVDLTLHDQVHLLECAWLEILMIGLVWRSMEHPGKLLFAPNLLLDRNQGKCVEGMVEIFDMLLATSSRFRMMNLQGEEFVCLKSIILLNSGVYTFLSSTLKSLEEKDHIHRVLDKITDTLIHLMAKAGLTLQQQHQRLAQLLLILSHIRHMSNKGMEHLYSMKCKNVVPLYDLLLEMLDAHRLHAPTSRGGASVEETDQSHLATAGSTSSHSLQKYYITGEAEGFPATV

ETBR = molecular target: T4, ETBR (Homo sapiens, UniProt P24530); settings: cited from earlier work
T4 sequence (P24530 27-442): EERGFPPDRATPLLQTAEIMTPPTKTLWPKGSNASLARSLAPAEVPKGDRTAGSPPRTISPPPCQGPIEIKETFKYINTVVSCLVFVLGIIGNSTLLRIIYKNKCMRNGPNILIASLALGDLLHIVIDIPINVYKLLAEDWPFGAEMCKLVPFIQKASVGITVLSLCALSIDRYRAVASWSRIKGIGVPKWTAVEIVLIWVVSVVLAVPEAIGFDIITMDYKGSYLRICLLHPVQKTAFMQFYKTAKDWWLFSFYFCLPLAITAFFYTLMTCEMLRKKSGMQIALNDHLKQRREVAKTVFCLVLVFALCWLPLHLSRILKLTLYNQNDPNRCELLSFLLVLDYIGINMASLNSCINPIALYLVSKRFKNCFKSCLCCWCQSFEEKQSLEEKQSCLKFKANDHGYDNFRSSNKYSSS

ETAR = molecular target: T5, ETAR (Homo sapiens, UniProt P25101); settings: cited from earlier work
T5 sequence (P25101 21-427): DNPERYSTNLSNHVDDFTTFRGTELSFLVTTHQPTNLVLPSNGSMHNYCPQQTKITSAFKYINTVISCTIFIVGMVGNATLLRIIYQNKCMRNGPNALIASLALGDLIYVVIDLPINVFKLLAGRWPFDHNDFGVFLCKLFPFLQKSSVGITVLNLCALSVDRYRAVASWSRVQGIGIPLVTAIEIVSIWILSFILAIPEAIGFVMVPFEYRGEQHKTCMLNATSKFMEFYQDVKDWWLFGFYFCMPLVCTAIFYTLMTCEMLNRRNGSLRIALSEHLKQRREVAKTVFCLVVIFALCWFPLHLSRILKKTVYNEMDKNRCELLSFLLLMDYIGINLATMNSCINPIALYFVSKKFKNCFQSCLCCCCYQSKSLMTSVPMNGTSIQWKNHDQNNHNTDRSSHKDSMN

O=P1(N(CCCl)CCCl)NCCCO1 (stereo not drawn) [cyclophosphamide]
tumor growth in xenograft [1]: inhibited tumor growth as compared to the control

CC(C)C[C@H](NC(=O)[C@@H](COC(C)(C)C)NC(=O)[C@H](Cc1ccc(O)cc1)NC(=O)[C@H](CO)NC(=O)[C@H](Cc1c[nH]c2ccccc12)NC(=O)[C@H](Cc1cnc[nH]1)NC(=O)[C@@H]1CCC(=O)N1)C(=O)N[C@@H](CCCNC(=N)N)C(=O)N1CCC[C@H]1C(=O)NNC(N)=O [Goserelin]
production of FSH and LH and sex hormones, initial effect (GnHR receptor): initial increase in production of FSH and LH
time after which the receptor is downregulated and LH or FSH levels fall (GnHR receptor): 14 to 21 days

COc1cc2c(Oc3ccc4[nH]c(C)cc4c3F)ncnc2cc1OCCCN1CCCC1 [AZD 2171]
tumor angiogenesis (human tumor xenographs): inhibited tumor angiogenesis

CC(C)(C#N)c1cc(Cn2cncn2)cc(C(C)(C)C#N)c1 [Anastrozole]
serum estradiol concentrations (aromatase): significantly lowers serum estradiol concentrations

C[C@]12CC[C@@H]3c4ccc(O)cc4C[C@@H](CCCCCCCCC[S+]([O-])CCCC(F)(F)C(F)(F)F)[C@H]3[C@@H]1CC[C@@H]2O (stereo partly drawn) [Fulvestrant]
affinity for estrogen receptors (estrogen receptors): affinity that is similar to that of estrodiol
effect on estrogen receptor level (estrogen receptor): downregulates and degrades the estrogen receptor

COc1nc(C)cnc1NS(=O)(=O)c1cccnc1-c1ccc(-c2nnco2)cc1 [ZD4054]
effect on ETBR (ETBR): no detectable effect on ETBR
binding to ETAR (ETAR): only binds to ETAR
